The source made the active and inactive calls. How the calls were made is not given here.
System: CCRIS mutagenicity, Ames/micronucleus/aberration tests
Assay: CCRIS mutagenicity studies
[1] = Test System: AMES SALMONELLA TYPHIMURIUM, Strain/Indicator: TA98, Metabolic Activation: NONE, Method: STANDARD PLATE
[2] = Test System: AMES SALMONELLA TYPHIMURIUM, Strain/Indicator: TA98, Metabolic Activation: RAT, LIVER, S-9, AROCLOR 1254, Method: STANDARD PLATE
[3] = Test System: AMES SALMONELLA TYPHIMURIUM, Strain/Indicator: TA100, Metabolic Activation: NONE, Method: STANDARD PLATE
[4] = Test System: AMES SALMONELLA TYPHIMURIUM, Strain/Indicator: TA100, Metabolic Activation: RAT, LIVER, S-9, AROCLOR 1254, Method: STANDARD PLATE
[5] = Test System: AMES SALMONELLA TYPHIMURIUM, Strain/Indicator: TA1535, Metabolic Activation: NONE, Method: STANDARD PLATE
[6] = Test System: AMES SALMONELLA TYPHIMURIUM, Strain/Indicator: TA1535, Metabolic Activation: RAT, LIVER, S-9, AROCLOR 1254, Method: STANDARD PLATE
[7] = Test System: AMES SALMONELLA TYPHIMURIUM, Strain/Indicator: TA1537, Metabolic Activation: NONE, Method: STANDARD PLATE
[8] = Test System: AMES SALMONELLA TYPHIMURIUM, Strain/Indicator: TA1537, Metabolic Activation: RAT, LIVER, S-9, AROCLOR 1254, Method: STANDARD PLATE
[9] = Test System: AMES SALMONELLA TYPHIMURIUM, Strain/Indicator: TA1538, Metabolic Activation: NONE, Method: STANDARD PLATE
[10] = Test System: AMES SALMONELLA TYPHIMURIUM, Strain/Indicator: TA1538, Metabolic Activation: RAT, LIVER, S-9, AROCLOR 1254, Method: STANDARD PLATE

Which results are given for `O=C/C=C/c1ccco1`?
mutagenic call (Test System: AMES SALMONELLA TYPHIMURIUM, Strain/Indicator: TA97, Metabolic Activation: HAMSTER, LIVER, S-9, AROCLOR 1254 (10%), Method: PREINCUBATION): inactive; negative; mutagenic call (Test System: AMES SALMONELLA TYPHIMURIUM, Strain/Indicator: TA97, Metabolic Activation: HAMSTER, LIVER, S-9, AROCLOR 1254 (30%), Method: PREINCUBATION): inactive; negative; mutagenic call (Test System: AMES SALMONELLA TYPHIMURIUM, Strain/Indicator: TA97, Metabolic Activation: NONE, Method: PREINCUBATION): inactive; negative; mutagenic call (Test System: AMES SALMONELLA TYPHIMURIUM, Strain/Indicator: TA97, Metabolic Activation: RAT, LIVER, S-9, AROCLOR 1254 (10%), Method: PREINCUBATION): inactive; negative; mutagenic call (Test System: AMES SALMONELLA TYPHIMURIUM, Strain/Indicator: TA97, Metabolic Activation: RAT, LIVER, S-9, AROCLOR 1254 (30%), Method: PREINCUBATION): inactive; negative; mutagenic call (Test System: AMES SALMONELLA TYPHIMURIUM, Strain/Indicator: TA98, Metabolic Activation: HAMSTER, LIVER, S-9, AROCLOR 1254 (10 OR 30%), Method: PREINCUBATION): inactive; negative; mutagenic call (Test System: AMES SALMONELLA TYPHIMURIUM, Strain/Indicator: TA98, Metabolic Activation: NONE, Method: PREINCUBATION): inactive; negative; mutagenic call (Test System: AMES SALMONELLA TYPHIMURIUM, Strain/Indicator: TA98, Metabolic Activation: RAT, LIVER, S-9, AROCLOR 1254 (10 OR 30%), Method: PREINCUBATION): inactive; negative; mutagenic call (Test System: AMES SALMONELLA TYPHIMURIUM, Strain/Indicator: TA100(NR), Metabolic Activation: NONE, Method: PREINCUBATION): inactive; negative; mutagenic call (Test System: AMES SALMONELLA TYPHIMURIUM, Strain/Indicator: TA100, Metabolic Activation: HAMSTER, LIVER, S-9, AROCLOR 1254 (10%), Method: PREINCUBATION): inactive; negative; mutagenic call (Test System: AMES SALMONELLA TYPHIMURIUM, Strain/Indicator: TA100, Metabolic Activation: HAMSTER, LIVER, S-9, AROCLOR 1254 (30%), Method: PREINCUBATION): inactive; negative; mutagenic call (Test System: AMES SALMONELLA TYPHIMURIUM, Strain/Indicator: TA100, Metabolic Activation: NONE, Method: PREINCUBATION): inactive; negative; mutagenic call (Test System: AMES SALMONELLA TYPHIMURIUM, Strain/Indicator: TA100, Metabolic Activation: RAT, LIVER, S-9, AROCLOR 1254 (10%), Method: PREINCUBATION): inactive; negative; mutagenic call (Test System: AMES SALMONELLA TYPHIMURIUM, Strain/Indicator: TA100, Metabolic Activation: RAT, LIVER, S-9, AROCLOR 1254 (30%), Method: PREINCUBATION): inactive; negative; mutagenic call (Test System: AMES SALMONELLA TYPHIMURIUM, Strain/Indicator: TA100, Metabolic Activation: RAT, LIVER, S-9, AROCLOR 1254, Method: PREINCUBATION): inactive; negative; mutagenic call (Test System: AMES SALMONELLA TYPHIMURIUM, Strain/Indicator: TA1535, Metabolic Activation: HAMSTER, LIVER, S-9, AROCLOR 1254 (10%), Method: PREINCUBATION): inactive; negative; mutagenic call (Test System: AMES SALMONELLA TYPHIMURIUM, Strain/Indicator: TA1535, Metabolic Activation: HAMSTER, LIVER, S-9, AROCLOR 1254 (30%), Method: PREINCUBATION): inactive; negative; mutagenic call (Test System: AMES SALMONELLA TYPHIMURIUM, Strain/Indicator: TA1535, Metabolic Activation: NONE, Method: PREINCUBATION): inactive; negative; mutagenic call (Test System: AMES SALMONELLA TYPHIMURIUM, Strain/Indicator: TA1535, Metabolic Activation: RAT, LIVER, S-9, AROCLOR 1254 (10%), Method: PREINCUBATION): inactive; negative; mutagenic call (Test System: AMES SALMONELLA TYPHIMURIUM, Strain/Indicator: TA1535, Metabolic Activation: RAT, LIVER, S-9, AROCLOR 1254 (30%), Method: PREINCUBATION): inactive; negative

With `COC(=O)c1ccc(O)cc1` as the compound, how does the mutagenic call [1] read?
The mutagenic call was “inactive; negative”.

What about the mutagenic call [2] of the same compound?
Its mutagenic call is “inactive; negative”.

What about the mutagenic call [3] of the same compound?
Its mutagenic call is “inactive; negative”.

What about the mutagenic call [4] of the same compound?
Its mutagenic call is “inactive; negative”.

What about the mutagenic call [5] of the same compound?
The mutagenic call was “inactive; negative”.

What about the mutagenic call [6] of the same compound?
Its mutagenic call is “inactive; negative”.

And the mutagenic call [7]?
Its mutagenic call is “inactive; negative”.

And the mutagenic call [8]?
The mutagenic call was “inactive; negative”.

And the mutagenic call [9]?
The mutagenic call was “inactive; negative”.

And the mutagenic call [10]?
The mutagenic call was “inactive; negative”.

And the mutagenic call (Test System: E. COLI, Strain/Indicator: WP2, Metabolic Activation: NONE, Method: STANDARD PLATE)?
The mutagenic call was “inactive; negative”.

What about the mutagenic call (Test System: E. COLI, Strain/Indicator: WP2, Metabolic Activation: RAT, LIVER, S-9, AROCLOR 1254, Method: STANDARD PLATE) of the same compound?
The mutagenic call was “inactive; negative”.

Which mutagenic call [5] does the source give for `O=C(O)c1cccnc1Nc1cccc(C(F)(F)F)c1` here?
The mutagenic call was “inactive; negative”.

With `O[C@H]1C=Cc2c(cc3c4c(c5ccccc5cc24)-c2ccccc2-3)[C@@H]1O` as the compound, how does the mutagenic call (Test System: AMES SALMONELLA TYPHIMURIUM, Strain/Indicator: TA100, Metabolic Activation: MOUSE, LIVER, S-9, 3-METHYLCHOLANTHRENE, Method: STANDARD PLATE) read?
The mutagenic call was “active; positive”.

What about the mutagenic call (Test System: AMES SALMONELLA TYPHIMURIUM, Strain/Indicator: TA100, Metabolic Activation: RAT, LIVER, S-9, 3-METHYLCHOLANTHRENE, Method: STANDARD PLATE) of the same compound?
Its mutagenic call is “active; positive”.

What does the source list for `Cc1cc(C)c(S(=O)(=O)O)cc1N=Nc1cc(S(=O)(=O)O)c2ccccc2c1O`?
mutagenic call (Test System: AMES SALMONELLA TYPHIMURIUM, Strain/Indicator: TA98, Metabolic Activation: HAMSTER, LIVER, S-9, AROCLOR 1254, Method: STANDARD PLATE): inactive; negative; mutagenic call [1]: inactive; negative; mutagenic call (Test System: AMES SALMONELLA TYPHIMURIUM, Strain/Indicator: TA98, Metabolic Activation: RAT LIVER S-9, AROCLOR 1254, Method: STANDARD PLATE): inactive; negative; mutagenic call [2]: inactive; negative; mutagenic call (Test System: AMES SALMONELLA TYPHIMURIUM, Strain/Indicator: TA100, Metabolic Activation: HAMSTER, LIVER, S-9, AROCLOR 1254, Method: STANDARD PLATE): inactive; negative; mutagenic call [3]: inactive; negative; mutagenic call (Test System: AMES SALMONELLA TYPHIMURIUM, Strain/Indicator: TA100, Metabolic Activation: RAT LIVER S-9, AROCLOR 1254, Method: STANDARD PLATE): inactive; negative; mutagenic call [4]: inactive; negative; mutagenic call (Test System: AMES SALMONELLA TYPHIMURIUM, Strain/Indicator: TA1535, Metabolic Activation: HAMSTER, LIVER, S-9, AROCLOR 1254, Method: STANDARD PLATE): inactive; negative; mutagenic call [5]: inactive; negative; mutagenic call [6]: inactive; negative; mutagenic call (Test System: AMES SALMONELLA TYPHIMURIUM, Strain/Indicator: TA1537, Metabolic Activation: HAMSTER, LIVER, S-9, AROCLOR 1254, Method: STANDARD PLATE): inactive; negative; mutagenic call [7]: inactive; negative; mutagenic call [8]: inactive; negative; mutagenic call (Test System: AMES SALMONELLA TYPHIMURIUM, Strain/Indicator: TA1538, Metabolic Activation: HAMSTER, LIVER, S-9, AROCLOR 1254 (2.5-20%), Method: PREINCUBATION): inactive; negative; mutagenic call (Test System: AMES SALMONELLA TYPHIMURIUM, Strain/Indicator: TA1538, Metabolic Activation: HAMSTER, LIVER, S-9, AROCLOR 1254, Method: STANDARD PLATE): inactive; negative; mutagenic call [9]: inactive; negative; mutagenic call [10]: inactive; negative; mutagenic call (Test System: MOUSE LYMPHOMA, Strain/Indicator: L5178Y (TK+/TK-), Metabolic Activation: NONE, Method: SUSPENSION/PLATE): inactive; negative. reevaluation of results: negative; mutagenic call (Test System: MOUSE LYMPHOMA, Strain/Indicator: L5178Y (TK+/TK-), Metabolic Activation: RAT, LIVER, S-9, AROCLOR 1254, Method: SUSPENSION/PLATE): inactive; negative. reevaluation of results: negative

For `CN(N=O)C(=O)Nc1ccc(Br)cc1`, which mutagenic call (End Point: IN VITRO CHROMOSOMAL ABERRATIONS, Test System: CHINESE HAMSTER V79-E CELLS, Metabolic Activation: NONE) is on record?
Its mutagenic call is “active; weakly positive”.

Which results are given for `CC(C)(O)CCc1ccc(O)c2c(=O)c3c(O)c4c(cc3oc12)O[C@H]1OC=C[C@@]41O`?
mutagenic call [1]: inactive; negative; mutagenic call [2]: active; positive; mutagenic call [3]: inactive; negative; mutagenic call [4]: active; positive

Reference: PubChem BioAssay AID1259407 (Chemical Carcinogenesis Research Information System (CCRIS), 2018)
